Experimental data: EP0013067A1, “Bicyclic beta-lactam antibacterial agents, their use in pharmaceutical compositions, processes for their preparation and intermediates for use in such processes” (BEECHAM GROUP PLC, priority 1978, dated 1980)

Legend:
Test in all cases: MIC, microtitre using Nutrient broth
Format in all cases: cell-based
Escherichia coli 0111 = conditions: Microtitre using nutrient broth, inoculum 0.001 ml of a 10^-2 dilution for G + ve bacteria or a 10^-4 dilution for G - ve organisms
Text: (§1) The ninimum inhibitory concentrations (MIC) cf this compound required to inhibit the growth of various bacteria are tabulated balow: […]

Escherichia coli JT 39 = conditions: JT39; Escherichia coli JT 39; Microtitre using nutrient broth; inoculum 0.001 ml of a 10^-2 dilution for G + ve bacteria or a 10^-4 dilution for G - ve organisms; read-out: MIC Broth
Text: as §1

Klebsiella aerogenes A = conditions: Klebsiella aerogenes A; Microtitre using nutrient broth; inoculum 0.001 ml of a 10^-2 dilution for G + ve bacteria or a 10^-4 dilution for G - ve organisms; read-out: MIC Broth
Text: as §1

Proteus mirabilis C977 = conditions: Proteus mirabilis C977; Microtitre using nutrient broth; inoculum 0.001 ml of a 10^-2 dilution for G + ve bacteria or a 10^-4 dilution for G - ve organisms; read-out: MIC Broth
Text: as §1

Pseudomonas aeruginosa A = conditions: Pseudomonas aeruginosa A; Microtitre using nutrient broth; inoculum 0.001 ml of a 10^-2 dilution for G + ve bacteria or a 10^-4 dilution for G - ve organisms; read-out: MIC Broth
Text: as §1

[1] = tested on: Staphylococcus aureus Oxford; conditions: Staphylococcus aureus Oxford; Microtitre using nutrient broth; inoculum 0.001 ml of a 10^-2 dilution for G + ve bacteria or a 10^-4 dilution for G - ve organisms; read-out: MIC Broth
Text: as §1

[2] = tested on: Staphylococcus aureus Russell; conditions: Staphylococcus aureus Russell; Microtitre using nutrient broth; inoculum 0.001 ml of a 10^-2 dilution for G + ve bacteria or a 10^-4 dilution for G - ve organisms; read-out: MIC Broth
Text: as §1

Enterobacter cloacae N1 = conditions: Microtitre using nutrient broth, inoculum 0.001 ml of a 10^-2 dilution for G + ve bacteria or a 10^-4 dilution for G - ve organisms
Text: as §1

[3] = tested on: Staphylococcus aureus 1517; conditions: inoculum 0.001 ml of a 10^-2 dilution for G + ve bacteria or a 10^-4 dilution for G - ve organisms
Text: as §1

| Compound | MIC (Escherichia coli 0111) | MIC (Escherichia coli JT 39) | MIC (Klebsiella aerogenes A) | MIC (Proteus mirabilis C977) | MIC (Pseudomonas aeruginosa A) | MIC [1] | MIC [2] | MIC (Enterobacter cloacae N1) | MIC [3] |
| --- | --- | --- | --- | --- | --- | --- | --- | --- | --- |
| O=C(O)C1=C(CO)SC2CC(=O)N12 (stereo not drawn) [compound 19, Sodium 2-Hydroxymethyl penem-3-carboxylate] | 31 µg/mL | 62 µg/mL | 31 µg/mL | 62 µg/mL | 62 µg/mL | 4 µg/mL | 8 µg/mL |  |  |
| CC(=O)OCC1=C(C(=O)O)N2C(=O)CC2S1 (stereo not drawn) [compound 21, Sodium 2-Acetoxymethyl penem-3-carboxylate] | 8 µg/mL | 31 µg/mL | 8 µg/mL | 8 µg/mL | 500 µg/mL |  | 8 µg/mL | 62 µg/mL | 8 µg/mL |
